PMC9683698 (Science Advances, 2022)
pIC50: −log10 of the molar value.

Columns and labels:
[1] = target: T1, cPLA2 (cPLA2 group IVA, PLA2G4A) (Homo sapiens, UniProt P47712); experiment: biochemical
T1 construct: recombinant, expressed and purified from insect cells
T1 sequence (P47712 1-749): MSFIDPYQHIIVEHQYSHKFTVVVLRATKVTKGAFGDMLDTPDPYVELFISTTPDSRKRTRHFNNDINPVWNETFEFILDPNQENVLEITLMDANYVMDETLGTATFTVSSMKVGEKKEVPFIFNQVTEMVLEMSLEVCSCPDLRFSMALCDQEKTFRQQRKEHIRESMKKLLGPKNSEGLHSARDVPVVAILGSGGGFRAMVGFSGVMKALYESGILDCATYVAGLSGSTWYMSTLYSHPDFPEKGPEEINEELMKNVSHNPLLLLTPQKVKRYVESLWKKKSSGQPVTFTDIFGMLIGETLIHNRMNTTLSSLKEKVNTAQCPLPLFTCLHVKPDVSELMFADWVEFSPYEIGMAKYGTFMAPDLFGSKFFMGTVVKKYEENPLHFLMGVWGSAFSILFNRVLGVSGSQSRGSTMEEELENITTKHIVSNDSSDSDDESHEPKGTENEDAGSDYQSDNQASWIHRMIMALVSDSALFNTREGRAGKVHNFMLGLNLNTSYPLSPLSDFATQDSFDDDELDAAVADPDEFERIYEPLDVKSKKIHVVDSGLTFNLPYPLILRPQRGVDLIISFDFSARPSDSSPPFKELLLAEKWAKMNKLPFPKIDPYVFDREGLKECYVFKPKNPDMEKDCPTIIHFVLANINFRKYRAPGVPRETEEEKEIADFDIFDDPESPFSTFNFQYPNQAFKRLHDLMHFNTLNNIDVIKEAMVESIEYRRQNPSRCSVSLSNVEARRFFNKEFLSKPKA

[2] = target: SARS-CoV S ectodomain (SARS-CoV) (UniProt P59594); experiment: […], SEC buffer 20 mM tris pH 7.5, 100 mM NaCl; […]

Compound | pIC50 [1] | stoichiometry N [2]
CCCCC/C=C\C/C=C\CCCCCCCC(=O)O [linoleic acid] | ~4.00 | –
SARS-CoV S ectodomain (from UniProt P59594 14-1193) (domain or fragment) | – | 3
